Laboratory results taken from article PMC10605010, “Immunotechniques for the Group Determination of Macrolide Antibiotics Traces in the Environment Using a Volume-Mediated Sensitivity Enhancement Strategy” (Biosensors, 2023).
≈ marks a conversion by molar mass, not a printed value. Where two headings read alike, the source gives them in different places.

Columns and labels:
[1] = system: antibody to immunogen BSA-cmoERY(ma); design: method as in PMID 25308648; settings: milk, cited from earlier work
[2] = system: antibody to immunogen BSA-cmoERY(ma); settings: milk; ERY = 100; cited from earlier work
[3] = system: anti-BSA-cmoCLA(ae) antibodies; design: method as in PMID 25256165; settings: coating antigen GEL-cmoCLA(ae), homologous; cited from earlier work
[4] = system: coated anti-BSA-cmoCLA(ae) antibody; experiment: Direct competitive antibody-coated ELISA (dcELISA) with HRP-aecAZI tracer; format: binding, rabbit; settings: 1 h
Text: (§1) To implement these assay formats, the IgG fraction was first isolated from antiserum via the double precipitation method using caprylic acid and ammonium sulfate, described in detail in [22]. The principle of the assays is based on competition between analyte and enzyme-labeled antigen (HRP-aecAZI) for binding to an antibody coated on the plate (dcELISA) or coupled covalently to Sepharose beads. The latter immunosorbent was used in the immunobeads assay (IBA) and immunofiltration assay (IFA).
dcELISA plate format. The direct competitive antibody-coated ELISA format was carried out in accordance with the generally accepted procedure. The antibody coated on polystyrene plates could capture the free analyte from the tested sample and enzyme-labeled hapten in a competitive manner. The sequence of manipulations corresponded to those described for a similar format earlier. The role of the volume ratios between the standard (25–275 µL) and HRP-aecAZI (25–175 µL) on the sensitivity of the assay was studied in this work.
As a result of interactions between antibody and a number of coating antigens, we have identified a preferred hapten and a rational antigen design for the most sensitive and broad-specific detection. Since the aecAZI hapten conjugated to the carrier via a zero-length arm yielded the desired assay performance, we prepared the same design enzyme-labeled hapten for the direct competitive assay format. […] Thus, a direct competitive assay format was optimized and established based on coated anti-BSA-cmoCLA(ae) antibody and HRP-aecAZI × 3 as a tracer.

[5] = system: antibody to immunogen BSA-cmoCLA(ae); design: method as in doi:10.1039/C9QM00429G; settings: milk; CLA = 100; cited from earlier work
[6] = system: anti-BSA-cmoCLA(ae) antibody; experiment: PrG-Ab-ELISA, step-by-step oriented antibody coating via protein G, direct competitive; format: binding, rabbit; settings: 0.5 h, coating Ab 200 µL, standard/sample 250 µL
Text: (§2) Another important consideration was the enhancement of the functional activity of antibodies through their oriented immobilization on the surface of polystyrene and its potential impact on the method sensitivity. This was achieved by interacting the adsorbed protein G with the antibody Fc fragments, allowing the antibody-binding fragments to remain spatially accessible. This interaction could be implemented in a step-by-step manner or as a result of self-assembly (Figure 4A). The step-by-step procedure involved the initial formation of a complex between the coated protein G and the antibody (PrG-Ab), followed by a competitive assay step. An alternative self-assembly method implied the competitive interaction of antibody with an analyte (sample) and a tracer in the solution with simultaneous binding to the coated protein G (PrG).

[7] = system: anti-BSA-cmoCLA(ae) antibody; experiment: PrG-ELISA, self-assembly on coated protein G, direct competitive; format: binding, rabbit; settings: 1.5 h, coating Ab 200 µL, standard/sample 250 µL
Text: as §2

[8] = system: antibody, immunogen Commercial; design: method as in doi:10.1007/s12161-015-0130-x; settings: milk; cited from earlier work
[9] = system: Anti-CLA(IgG) coupled to Sepharose beads; experiment: Immunofiltration assay (IFA); format: binding, rabbit; settings: overnight, Ab volume 50 µL, standard/sample 10,000 µL
Procedure: Sepharose 4B or Sepharose-CL-2B (Pharmacia, Uppsala, Sweden) were washed with water on a porous glass filter and then squeezed out with a soft press from excess moisture. The washed beads (2 g) were placed in a vial with sodium periodate solution (60 mg in 5 mL H2O) and mixed with a rotary mixer (ELMI Ltd. laboratory equipment, Riga, Latvia) for 45 min. An additional 30 min rotation continued after the addition of ethylene glycol (250 µL). The beads were then washed with water and finally with CBB (pH 9.6) squeezed mildly out. Each of the activated sorbents was placed in a vial for mixing with anti-cmoCLA IgG (10 mg) in 2 mL CBB (pH 9.6) for 48 h at 4 °C. The excess antibody was squeezed out. The beads were then washed with water and placed in a sodium borohydride solution (4 mg/4 mL) for 1 h with occasional shaking. After the final washing with water and PSBT, the resulting immune sorbents were stored at 4 °C in 10 mL of PSBT preserved with Merthiolate (1 mg).
as §1
Immunofiltration assay (IFA). The IFA principle consisted of passing a mixture of standard/sample (10 mL) and HRP-aecAZI through the beads with immobilized antibodies (Anti-CLA(IgG)-S4B or Anti-CLA(IgG)-SCL2B) placed in a homemade column and recording the enzymatic activity of the captured HRP-aecAZI. Briefly, the optimal volume of the prepared immunosorbent was placed on a pre-moistened filter support in a 10 μL filtered micropipette tip, which was then accurately attached to a syringe. This homemade column was filled with 10 mL of the standard analyte or water sample, avoiding the formation of bubbles. […]

[10] = coating Ab 100 µL, standard/sample 25 µL
[11] = coating Ab 100 µL, standard/sample 50 µL
[12] = coating Ab 100 µL, standard/sample 100 µL
[13] = coating Ab 100 µL, standard/sample 200 µL
[14] = coating Ab 100 µL, standard/sample 275 µL
[15] = coating Ab 200 µL, standard/sample 275 µL
[16] = coating Ab 300 µL, standard/sample 275 µL

CC[C@H]1OC(=O)[C@H](C)[C@@H](O[C@H]2C[C@@](C)(OC)[C@@H](O)[C@H](C)O2)[C@H](C)[C@@H](O[C@@H]2O[C@H](C)C[C@H](N(C)C)[C@H]2O)[C@](C)(O)C[C@@H](C)C(=O)[C@H](C)[C@@H](O)[C@]1(C)O [ERY, Erythromycin]
CR ([1]; ERY = 100): 100% | IC50 [1]: 0.94 ng/mL (≈ 1.28 nM) | LOD [1]: 0.3 ng/mL | CR [2]: 100% | IC50 [3]: 0.20 ng/mL (≈ 0.273 nM) | IC10 (LOD) [4, 10]: 0.04 ng/mL (≈ 0.0545 nM) | IC20-IC80 (working range) [4, 10]: 0.097 to 0.907 ng/mL | IC50 [4, 10]: 0.31 ng/mL (≈ 0.422 nM) | IC10 (LOD) [4, 11]: 0.04 ng/mL (≈ 0.0545 nM) | IC20-IC80 (working range) [4, 11]: 0.085 to 0.565 ng/mL | IC50 [4, 11]: 0.23 ng/mL (≈ 0.313 nM) | IC10 (LOD) [4, 12]: 0.008 ng/mL (≈ 0.0109 nM) | IC20-IC80 (working range) [4, 12]: 0.037 to 0.400 ng/mL | IC50 [4, 12]: 0.14 ng/mL (≈ 0.191 nM) | IC10 (LOD) [4, 13]: 0.011 ng/mL (≈ 0.015 nM) | IC20-IC80 (working range) [4, 13]: 0.029 to 0.253 ng/mL | IC50 [4, 13]: 0.098 ng/mL (≈ 0.134 nM) | IC10 (LOD) [4, 14]: 0.024 ng/mL (≈ 0.0327 nM) | IC20-IC80 (working range) [4, 14]: 0.043 to 0.184 ng/mL | IC50 [4, 14]: 0.091 ng/mL (≈ 0.124 nM) | IC10 (LOD) [4, 15]: 0.002 ng/mL (≈ 0.00273 nM) | IC20-IC80 (working range) [4, 15]: 0.008 to 0.119 ng/mL | IC50 [4, 15]: 0.034 ng/mL (≈ 0.0463 nM) | IC10 (LOD) [4, 16]: 0.006 ng/mL (≈ 0.00818 nM) | IC20-IC80 (working range) [4, 16]: 0.012 to 0.119 ng/mL | IC50 [4, 16]: 0.040 ng/mL (≈ 0.0545 nM) | CR [5]: 30.1% | IC10 (LOD) [6]: 0.002 ng/mL (≈ 0.00273 nM) | IC20-IC80 (working range) [6]: 0.006 to 0.054 ng/mL | IC50 [6]: 0.020 ng/mL (≈ 0.0273 nM) | IC10 (LOD) [7]: 0.007 ng/mL (≈ 0.00954 nM) | IC20-IC80 (working range) [7]: 0.015 to 0.199 ng/mL | IC50 [7]: 0.055 ng/mL (≈ 0.0749 nM) | CR [8]: 100% | LOD [8]: ni//5 ng/mL | IC10 (LOD) [9]: 0.001 ng/mL (≈ 0.00136 nM) | IC20-IC80 (working range) [9]: 0.002 to 0.019 ng/mL | IC50 [9]: 0.005 ng/mL (≈ 0.00681 nM)
